Source: ChEMBL document CHEMBL1150411, “4-(Phenylaminomethylene)isoquinoline-1,3(2H,4H)-diones as potent and selective inhibitors of the cyclin-dependent kinase 4 (CDK4)” (J Med Chem, 2008)
≈ marks a conversion by molar mass, not a printed value.

Columns and labels:
[1] = molecular target: Cyclin-dependent kinase 2 (Homo sapiens, UniProt P24941); assay: Inhibition of CDK2/cyclin E expressed in Sf9 cells-baculovirus system assessed as retinoblastoma susceptibility gene product phosphorylation
[2] = molecular target: Cyclin-dependent kinase 1/cyclin B1 (Homo sapiens, UniProt P06493); assay: Inhibition of CDK1/Cyclin B1 expressed in Sf9 cells-baculovirus system assessed as retinoblastoma susceptibility gene product phosphorylation
[3] = molecular target: Cyclin-dependent kinase 4/cyclin D1 (Homo sapiens, UniProt P11802); assay: Inhibition of CDK4/cyclin D1 expressed in Sf9 cells-baculovirus system assessed as retinoblastoma susceptibility gene product phosphorylation
[4] = Aqueous solubility at pH 7.4; type: physicochemical
[5] = tested on: MCF7; assay: Antiproliferative activity against human MCF7 cells by SRB method; type: functional, cell-based
[6] = tested on: HCT-116; assay: Antiproliferative activity against human HCT116 cells by SRB method; type: functional, cell-based

Chain of Cyclin-dependent kinase 1/cyclin B1 (P06493 whole entry): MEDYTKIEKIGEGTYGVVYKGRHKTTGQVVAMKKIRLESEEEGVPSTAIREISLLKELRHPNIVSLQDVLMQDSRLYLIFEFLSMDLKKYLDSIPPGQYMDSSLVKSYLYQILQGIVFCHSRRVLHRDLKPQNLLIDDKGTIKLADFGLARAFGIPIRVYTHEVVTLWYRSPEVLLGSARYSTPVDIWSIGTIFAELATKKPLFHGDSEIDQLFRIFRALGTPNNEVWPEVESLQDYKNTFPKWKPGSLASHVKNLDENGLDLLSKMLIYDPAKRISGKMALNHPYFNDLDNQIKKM
Chain of Cyclin-dependent kinase 1/cyclin B1 (P14635 whole entry, further chain): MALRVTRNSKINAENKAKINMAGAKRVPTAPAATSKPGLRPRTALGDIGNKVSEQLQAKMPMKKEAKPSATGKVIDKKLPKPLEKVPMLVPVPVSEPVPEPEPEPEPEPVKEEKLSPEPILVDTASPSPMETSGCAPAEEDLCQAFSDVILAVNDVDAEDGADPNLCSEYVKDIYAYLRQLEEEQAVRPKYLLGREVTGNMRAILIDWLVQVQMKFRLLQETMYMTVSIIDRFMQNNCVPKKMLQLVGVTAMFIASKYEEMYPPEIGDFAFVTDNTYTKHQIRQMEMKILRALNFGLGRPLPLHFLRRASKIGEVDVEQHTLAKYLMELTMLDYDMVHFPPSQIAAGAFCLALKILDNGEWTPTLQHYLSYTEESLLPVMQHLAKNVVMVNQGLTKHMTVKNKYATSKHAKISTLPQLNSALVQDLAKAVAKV
Chain of Cyclin-dependent kinase 4/cyclin D1 (P11802 whole entry): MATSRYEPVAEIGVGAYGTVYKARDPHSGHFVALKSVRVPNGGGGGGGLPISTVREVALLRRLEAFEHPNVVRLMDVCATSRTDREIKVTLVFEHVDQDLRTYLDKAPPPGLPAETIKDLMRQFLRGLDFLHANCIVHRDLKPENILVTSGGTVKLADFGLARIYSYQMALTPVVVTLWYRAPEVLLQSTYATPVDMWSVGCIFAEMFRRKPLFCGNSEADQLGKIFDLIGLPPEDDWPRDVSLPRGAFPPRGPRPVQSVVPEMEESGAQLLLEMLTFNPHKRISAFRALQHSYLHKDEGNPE
Chain of Cyclin-dependent kinase 4/cyclin D1 (P24385 whole entry, further chain): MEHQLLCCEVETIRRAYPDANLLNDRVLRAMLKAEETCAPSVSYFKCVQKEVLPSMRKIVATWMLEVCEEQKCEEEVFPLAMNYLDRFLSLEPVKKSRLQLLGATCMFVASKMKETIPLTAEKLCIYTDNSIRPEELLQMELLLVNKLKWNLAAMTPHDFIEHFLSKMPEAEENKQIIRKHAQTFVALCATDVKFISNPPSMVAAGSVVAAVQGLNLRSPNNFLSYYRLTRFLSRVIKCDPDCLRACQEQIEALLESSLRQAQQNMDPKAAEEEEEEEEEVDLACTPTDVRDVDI

Compound | IC50 [1] [µM] | IC50 [2] [µM] | IC50 [3] [µM] | solubility [4] [µg/mL] | IC50 [5] [µM] | IC50 [6] [µM]
O=C1NC(=O)c2ccccc2/C1=C/Nc1ccc(CN2CCCCC2)cc1 | 19.6 | > 27 | 3.3 |  |  | 
O=C1NC(=O)c2ccc(N3CCCCC3)cc2/C1=C/Nc1ccc(CN2CCCCC2)cc1 | > 50 | > 50 | 1 |  |  | 
CC1CN(c2ccc(N/C=C3\C(=O)NC(=O)c4ccc(I)cc43)cc2)CCN1C (centres undefined) | > 50 | > 50 |  | 5 (≈ 9.95 µM) |  | 
CN1CCN(c2ccc(N/C=C3\C(=O)NC(=O)c4ccc(-c5ccoc5)cc43)nc2)CC1 |  | > 50 |  |  |  | 
CN1CC2CC1CN2c1ccc(N/C=C2\C(=O)NC(=O)c3ccc(I)cc32)cc1 (centres undefined) | > 50 | > 50 | 0.32 | 18 (≈ 36 µM) | 2.6 | 1.9
CN1CCN(c2ncc(N/C=C3\C(=O)NC(=O)c4ccc(-c5ccoc5)cc43)cn2)CC1 |  |  |  |  | 3.2 | 1.1
O=C1NC(=O)c2ccc(-c3ccc(Cl)cc3)cc2/C1=C/Nc1ccc(CN2CCCCC2)cc1 | > 50 | > 50 |  |  |  | 
O=C1NC(=O)c2ccc(-c3ccc(F)cc3)cc2/C1=C/Nc1ccc(CN2CCCCC2)cc1 | > 50 | > 50 |  |  | 0.55 | 1
O=C1NC(=O)c2ccc(-c3cccc(O)c3)cc2/C1=C/Nc1ccc(CN2CCCCC2)cc1 | > 50 | > 50 |  |  | 2 | 1.3
CN1CCN(c2ccc3c(c2)/C(=C/Nc2ccc(CN4CCCCC4)cc2)C(=O)NC3=O)CC1 | > 50 | > 50 |  |  |  | 
C[C@@H]1CN(c2ccc(N/C=C3\C(=O)NC(=O)c4ccc(I)cc43)cc2)C[C@H](C)N1C |  | > 50 |  | 4 (≈ 7.75 µM) |  | 
CN1CCN(c2ccc(N/C=C3\C(=O)NC(=O)c4ccc(-c5ccoc5)cc43)cc2F)CC1 |  | > 50 |  |  | 0.9 | 2.2
COc1cccc(-c2ccc3c(c2)/C(=C/Nc2ccc(CN4CCCCC4)cc2)C(=O)NC3=O)c1 |  | > 50 |  |  |  | 
CN1CCN(c2ccc(N/C=C3\C(=O)NC(=O)c4ccc(N5CCCCC5)cc43)cc2)CC1 | > 50 | > 50 | 1.62 |  |  | 
C[C@@H]1CN(c2ccc(N/C=C3\C(=O)NC(=O)c4ccc(I)cc43)cc2)C[C@H](C)N1 | > 50 | > 50 | 1 | 12 (≈ 23.9 µM) |  | 
CN1CCN(c2ccc(N/C=C3\C(=O)NC(=O)c4cc(Br)ccc43)cc2)CC1 |  | > 50 | 12.1 |  |  | 
CN1CCN(c2cnc(N/C=C3\C(=O)NC(=O)c4ccc(-c5ccoc5)cc43)cn2)CC1 |  |  | 1.25 |  | 1.3 | 0.95
CN1CCN(c2ccc(N/C=C3\C(=O)NC(=O)c4ccc(-c5ccccc5)cc43)cc2)CC1 | > 50 | > 50 | 0.39 |  |  | 
CN1CCN(c2ccc(N/C=C3\C(=O)NC(=O)c4ccc(I)cc43)cc2)CC1 |  | > 50 |  | 1 (≈ 2.05 µM) |  | 
CN1CCN(c2ccc(N/C=C3\C(=O)NC(=O)c4ccc(-n5cccc5)cc43)cc2)CC1 | > 50 | > 50 | 0.14 |  | 2.3 | 1.5
O=C1NC(=O)c2ccc(Cl)cc2/C1=C/Nc1ccc(CN2CCCCC2)cc1 |  | > 50 |  |  |  | 
O=C1NC(=O)c2ccc(I)cc2/C1=C/Nc1ccc(CN2CCCCC2)cc1 |  | > 50 |  |  | 1 | 2.7
O=C1NC(=O)c2ccc(Nc3ccccc3)cc2/C1=C/Nc1ccc(CN2CCCCC2)cc1 |  | > 50 |  |  |  | 
O=C1NC(=O)c2ccccc2/C1=C/Nc1ccc(CN2CCOCC2)cc1 | 21 | > 27 | 10 |  |  | 

Compound | IC50 [1] [µM] | IC50 [2] [µM] | IC50 [3] [µM] | solubility [4] [µg/mL] | IC50 [5] [µM] | IC50 [6] [µM]
CN1CCN(c2ccc(N/C=C3\C(=O)NC(=O)c4ccc(/C=C/c5ccccc5)cc43)cc2)CC1 |  |  | 14.3 |  |  | 
COc1ccc2c(c1)/C(=C/Nc1ccc(CN3CCCCC3)cc1)C(=O)NC2=O | > 50 | > 50 | 2 |  |  | 
CN1CCN(c2ccc(N/C=C3\C(=O)NC(=O)c4ccc(-c5ccoc5)cc43)cn2)CC1 | > 50 | > 50 | 0.11 |  |  | 
O=C1NC(=O)c2ccc(-c3cccnc3)cc2/C1=C/Nc1ccc(CN2CCCCC2)cc1 | > 50 | > 50 | 0.05 |  |  | 
CC(=O)Nc1ccc2c(c1)/C(=C/Nc1ccc(CN3CCCCC3)cc1)C(=O)NC2=O |  | > 50 | 3.5 |  |  | 
CN(C)C(=O)c1ccc2c(c1)/C(=C/Nc1ccc(CN3CCCCC3)cc1)C(=O)NC2=O | 39.8 | > 50 |  |  |  | 
CN1CCN(c2ccc(N/C=C3\C(=O)NC(=O)c4ccccc43)cc2)CC1 | > 28 | > 28 | 4.1 |  |  | 
CN1CCN(c2ccc(N/C=C3\C(=O)NC(=O)c4ccc(-c5ccoc5)cc43)cc2)CC1 |  | > 50 |  |  | 1.1 | 1.2
O=C1NC(=O)c2ccc(-c3ccccc3)cc2/C1=C/Nc1ccc(CN2CCCCC2)cc1 | > 50 | > 50 | 0.32 |  |  | 
O=C1NC(=O)c2ccc(N3CCOCC3)cc2/C1=C/Nc1ccc(CN2CCCCC2)cc1 | > 50 | > 50 |  |  |  | 
O=C1NC(=O)c2ccc(-c3ccc(Oc4ccccc4)cc3)cc2/C1=C\Nc1ccc(CN2CCCCC2)cc1 | > 50 | > 50 | > 50 |  |  | 
O=C1NC(=O)c2ccc(-c3ccc(O)cc3)cc2/C1=C/Nc1ccc(CN2CCCCC2)cc1 | > 50 | > 50 |  |  |  | 
CN1CCN(c2ccc(N/C=C3\C(=O)NC(=O)c4ccc(C(=O)N(C)C)cc43)cc2)CC1 |  | > 50 |  |  |  | 
O=C1NC(=O)c2ccc([N+](=O)[O-])cc2/C1=C/Nc1ccc(CN2CCCCC2)cc1 | > 50 | > 50 | 15.1 |  |  | 
COc1ccc(-c2ccc3c(c2)/C(=C/Nc2ccc(CN4CCCCC4)cc2)C(=O)NC3=O)cc1 | > 50 | > 50 | 0.13 |  |  | 
O=C1NC(=O)c2ccc(-n3cccc3)cc2/C1=C/Nc1ccc(CN2CCCCC2)cc1 | > 50 | > 50 | 0.14 |  | 2.1 | 2.7
O=C1NC(=O)c2ccccc2/C1=C/Nc1ccc(N2CCOCC2)cc1 |  | > 29 | > 29 |  |  | 
O=C1NC(=O)c2ccc(-c3ccoc3)cc2/C1=C/Nc1ccc(CN2CCCCC2)cc1 | > 50 | > 50 |  |  |  | 
O=C1NC(=O)c2ccc(-c3ccsc3)cc2/C1=C/Nc1ccc(CN2CCCCC2)cc1 |  | > 50 | 0.13 |  | 3.4 | 1
CN1CCN(c2ccc(N/C=C3\C(=O)NC(=O)c4ccc(-c5ccsc5)cc43)cc2)CC1 |  | > 50 | 0.1 |  | 2.3 | 1.4
CC(=O)Nc1ccc2c(c1)/C(=C/Nc1ccc(N3CCN(C)CC3)cc1)C(=O)NC2=O | > 50 | 13.8 | 11 |  |  | 
CN1CCN(c2ccc(N/C=C3\C(=O)NC(=O)c4ccc(-c5ccco5)cc43)cc2)CC1 | > 50 | > 50 | 0.33 |  |  | 
C[C@@H]1CN(c2ccc(N/C=C3\C(=O)NC(=O)c4ccc(I)cc43)cc2)[C@@H](C)CN1C | > 50 | > 50 | 3 | 4 (≈ 7.75 µM) | 1 | 5
CN1CCN(c2ccc(N/C=C3\C(=O)NC(=O)c4ccc(-c5ccoc5)cc43)nn2)CC1 |  |  |  |  | 4.5 | 1.9
